Data published in patent US10604554B2, “Double-acylated GLP-1 derivatives” (Novo Nordisk A/S, priority 2012, dated 2020).
Numbered stars: 1 amine (or outer) side, 2 acyl side, 3 side chain; on linkers, the order of the positions; unused ones are H or OH. Square brackets hold non-standard residues; d marks the D form. Side chains are listed from the residue outwards. Peptide text beside a SMILES is read from it. * marks the point of attachment. Decanoyl(10-(4-HOOC-PhO)) = O=C(O)c1ccc(OCCCCCCCCCC(=O)*)cc1; γGlu = O=C(O)[C@H](CCC(=O)[*:2])N[*:1]; εLys = N[C@@H](CCCCN[*:1])C(=O)[*:2]; AEEA = NCCOCCOCC(=O)O; Aib = CC(C)(N)C(=O)O

Legend:
human GLP-1 receptor [1] = target: T1, human GLP-1 receptor (Homo sapiens, UniProt P43220); experiment: GLP-1 receptor binding (SPA, displacement of 125I-GLP-1)
T1 construct: expressed in transfected cells; host or cells: BHK cells, clone FCW467-12A/KZ10-1 (parent line BHKTS13), further transfected with CRE luciferase
How it was run: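 Membranes from a stably transfected hamster cell line, 5-10 ug protein/sample, with WGA SPA beads and [125I]-GLP-1(7-36)NH2 at 0.06 nM final. Incubated 120 min at 30 °C with shaking, then counted.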

[2] = Pharmacokinetic (PK) study in rat; conditions: male, Sprague Dawley, in vivo, iv, 6 nmol/kg
[3] = Pharmacokinetic (PK) study in minipig; conditions: male, Göttingen, in vivo, iv
human GLP-1 receptor [4] = target: T1, human GLP-1 receptor; experiment: In vitro potency (CRE luciferase; whole cells); format: cell-based; design: EC50/pM (ratio 1% HSA/0% HSA): unit not given here; conditions: for EC50: BHK cells; for EC50/pM (ratio 1% HSA/0% HSA): ratio of EC50 at 1% HSA to EC50 at 0% HSA
How it was run: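 Stably transfected BHK cells carrying human GLP-1R and a CRE–firefly luciferase reporter, 5×10^3 cells/well in assay medium, run with 0% or 1% HSA in assay buffer.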

[5] = Receptor binding affinity IC50 (high HSA), 2.0% HSA (high albumin)
[6] = Receptor binding affinity IC50 (low HSA), 0.001% HSA (low albumin)
[7] = In vitro potency (CRE luciferase) EC50 (0% HSA), 0% HSA
[8] = In vitro potency (CRE luciferase) EC50 (1% HSA), 1% HSA

T1 sequence (P43220 24-463): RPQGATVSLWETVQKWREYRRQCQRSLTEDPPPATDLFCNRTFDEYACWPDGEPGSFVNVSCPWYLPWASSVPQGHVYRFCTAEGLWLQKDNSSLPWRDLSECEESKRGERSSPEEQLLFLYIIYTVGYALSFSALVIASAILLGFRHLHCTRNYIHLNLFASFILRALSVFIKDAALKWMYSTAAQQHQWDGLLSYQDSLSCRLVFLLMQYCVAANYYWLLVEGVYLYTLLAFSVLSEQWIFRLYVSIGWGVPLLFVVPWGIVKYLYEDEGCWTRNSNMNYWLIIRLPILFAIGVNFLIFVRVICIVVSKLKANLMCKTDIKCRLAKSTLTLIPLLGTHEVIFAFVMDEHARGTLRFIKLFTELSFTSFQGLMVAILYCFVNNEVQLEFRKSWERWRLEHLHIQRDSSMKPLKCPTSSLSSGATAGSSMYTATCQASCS

| SMILES | IC50 (human GLP-1 receptor [1]; [5]) | IC50 (human GLP-1 receptor [1]; [6]) | half-life [2] | half-life [3] | EC50 (human GLP-1 receptor [4]; [7]) | EC50 (human GLP-1 receptor [4]; [8]) | EC50/pM (ratio 1% HSA/0% HSA) (human GLP-1 receptor [4]) |
| --- | --- | --- | --- | --- | --- | --- | --- |
| CC[C@H](C)[C@H](NC(=O)[C@H](Cc1ccccc1)NC(=O)[C@H](CCC(=O)O)NC(=O)[C@H](CCCCNC(=O)[C@@H](N)CCCCNC(=O)[C@@H](N)CCCCNC(=O)CC[C@H](NC(=O)CCCCCCCNC(=O)CCCCCCCCCOc1ccc(C(=O)O)cc1)C(=O)O)NC(=O)[C@H](C)NC(=O)[C@H](C)NC(=O)[C@H](CCC(N)=O)NC(=O)CNC(=O)[C@H](CCC(=O)O)NC(=O)[C@H](CC(C)C)NC(=O)[C@H](Cc1ccc(O)cc1)NC(=O)[C@H](CO)NC(=O)[C@H](CO)NC(=O)[C@@H](NC(=O)[C@H](CC(=O)O)NC(=O)[C@H](CO)NC(=O)[C@@H](NC(=O)[C@H](Cc1ccccc1)NC(=O)[C@@H](NC(=O)CNC(=O)[C@H](CCC(=O)O)NC(=O)C(C)(C)NC(=O)[C@@H](N)Cc1c[nH]cn1)[C@@H](C)O)[C@@H](C)O)C(C)C)C(=O)N[C@@H](C)C(=O)N[C@@H](Cc1c[nH]c2ccccc12)C(=O)N[C@@H](CC(C)C)C(=O)N[C@H](C(=O)N[C@@H](CCCNC(=N)N)C(=O)NCC(=O)N[C@@H](CCCNC(=N)N)C(=O)N[C@@H](CCCCNC(=O)[C@@H](N)CCCCNC(=O)[C@@H](N)CCCCNC(=O)CC[C@H](NC(=O)CCCCCCCNC(=O)CCCCCCCCCOc1ccc(C(=O)O)cc1)C(=O)O)C(=O)O)C(C)C [Example 26, N^ε26-[(2S)-2-amino-6-[[(2S)-2-amino-6-[[(4S)-4-carboxy-4-[8-[10-(4-carboxyphenoxy)decanoylamino]octanoylamino]butanoyl]amino]hexanoyl]amino]hexanoyl], N^ε37-[(2S)-2-amino-6-[[(2S)-2-amino-6-[[(4S)-4-carboxy-4-[8-[10-(4-carboxyphenoxy)decanoylamino]octanoylamino]butanoyl]amino]hexanoyl]amino]hexanoyl]-[Aib^8,Arg^34,Lys^37]-GLP-1-(7-37)-peptide] | 106 nM | 0.38 nM | 16 h | 13 h |  |  |  |
| CC[C@H](C)[C@H](NC(=O)[C@H](Cc1ccccc1)NC(=O)[C@H](CCC(=O)O)NC(=O)[C@H](CCCCNC(=O)[C@@H](N)CCCCNC(=O)COCCOCCNC(=O)COCCOCCNC(=O)CC[C@H](NC(=O)CCCCCCCCCOc1ccc(C(=O)O)cc1)C(=O)O)NC(=O)[C@H](C)NC(=O)[C@H](C)NC(=O)[C@H](CCC(N)=O)NC(=O)[C@H](CCC(=O)O)NC(=O)[C@H](CCC(=O)O)NC(=O)[C@H](CC(C)C)NC(=O)[C@H](Cc1ccc(O)cc1)NC(=O)[C@H](CO)NC(=O)[C@H](CO)NC(=O)[C@@H](NC(=O)[C@H](CC(=O)O)NC(=O)[C@H](CO)NC(=O)[C@@H](NC(=O)[C@H](Cc1ccccc1)NC(=O)[C@@H](NC(=O)CNC(=O)[C@H](CCC(=O)O)NC(=O)C(C)(C)NC(=O)[C@@H](N)Cc1c[nH]cn1)[C@@H](C)O)[C@@H](C)O)C(C)C)C(=O)N[C@@H](C)C(=O)N[C@@H](Cc1c[nH]c2ccccc12)C(=O)N[C@@H](CC(C)C)C(=O)N[C@H](C(=O)N[C@@H](CCC(N)=O)C(=O)NCC(=O)N[C@@H](CCCNC(=N)N)C(=O)N[C@@H](CCCCNC(=O)[C@@H](N)CCCCNC(=O)COCCOCCNC(=O)COCCOCCNC(=O)CC[C@H](NC(=O)CCCCCCCCCOc1ccc(C(=O)O)cc1)C(=O)O)C(=O)O)C(C)C [Example 18] (H-H[Aib]EGTFTSDVSSYLEEQAAK([εLys-AEEA-AEEA-γGlu-Decanoyl(10-(4-HOOC-PhO))])EFIAWLVQGRK([εLys-AEEA-AEEA-γGlu-Decanoyl(10-(4-HOOC-PhO))])-OH; N-terminus and C-terminus assumed) | 159 nM | 0.99 nM | 20 h | 47 h | 0.012 nM | 0.079 nM | 6.9 |
| CC[C@H](C)[C@H](NC(=O)[C@H](Cc1ccccc1)NC(=O)[C@H](CCC(=O)O)NC(=O)[C@H](CCCCNC(=O)[C@@H](N)CCCCNC(=O)COCCOCCNC(=O)COCCOCCNC(=O)CC[C@H](NC(=O)CCCCCCCCCCCOc1ccc(C(=O)O)cc1)C(=O)O)NC(=O)[C@H](C)NC(=O)[C@H](C)NC(=O)[C@H](CCC(N)=O)NC(=O)CNC(=O)[C@H](CCC(=O)O)NC(=O)[C@H](CC(C)C)NC(=O)[C@H](Cc1ccc(O)cc1)NC(=O)[C@H](CO)NC(=O)[C@H](CO)NC(=O)[C@@H](NC(=O)[C@H](CC(=O)O)NC(=O)[C@H](CO)NC(=O)[C@@H](NC(=O)[C@H](Cc1ccccc1)NC(=O)[C@@H](NC(=O)CNC(=O)[C@H](CCC(=O)O)NC(=O)C(C)(C)NC(=O)[C@@H](N)Cc1c[nH]cn1)[C@@H](C)O)[C@@H](C)O)C(C)C)C(=O)N[C@@H](C)C(=O)N[C@@H](Cc1c[nH]c2ccccc12)C(=O)N[C@@H](CC(C)C)C(=O)N[C@H](C(=O)N[C@@H](CCCNC(=N)N)C(=O)NCC(=O)N[C@@H](CCCNC(=N)N)C(=O)N[C@@H](CCCCNC(=O)[C@@H](N)CCCCNC(=O)COCCOCCNC(=O)COCCOCCNC(=O)CC[C@H](NC(=O)CCCCCCCCCCCOc1ccc(C(=O)O)cc1)C(=O)O)C(=O)O)C(C)C [Example 14, N^ε26-[(2S)-2-amino-6-[[2-[2-[2-[[2-[2-[2-[[(4S)-4-carboxy-4-[12-(4-carboxyphenoxy)dodecanoylamino]butanoyl]amino]ethoxy]ethoxy]acetyl]amino]ethoxy]ethoxy]acetyl]amino]hexanoyl], N^ε37-[(2S)-2-amino-6-[[2-[2-[2-[[2-[2-[2-[[(4S)-4-carboxy-4-[12-(4-carboxyphenoxy)dodecanoylamino]butanoyl]amino]ethoxy]ethoxy]acetyl]amino]ethoxy]ethoxy]acetyl]amino]hexanoyl]-[Aib^8,Arg^34, Lys^37]-GLP-1-(7-37)-peptide] | 154 nM | 0.3 nM | 19 h | 88 h | 0.0048 nM | 0.076 nM | 16 |
| CC[C@H](C)[C@H](NC(=O)[C@H](Cc1ccccc1)NC(=O)[C@H](CCC(=O)O)NC(=O)[C@H](CCCCNC(=O)[C@@H](N)CCCCNC(=O)CC[C@H](NC(=O)CC[C@H](NC(=O)CC[C@H](NC(=O)CCCCCCCCCCCOc1ccc(C(=O)O)cc1)C(=O)O)C(=O)O)C(=O)O)NC(=O)[C@H](C)NC(=O)[C@H](C)NC(=O)[C@H](CCC(N)=O)NC(=O)CNC(=O)[C@H](CCC(=O)O)NC(=O)[C@H](CC(C)C)NC(=O)[C@H](Cc1ccc(O)cc1)NC(=O)[C@H](CO)NC(=O)[C@H](CO)NC(=O)[C@@H](NC(=O)[C@H](CC(=O)O)NC(=O)[C@H](CO)NC(=O)[C@@H](NC(=O)[C@H](Cc1ccccc1)NC(=O)[C@@H](NC(=O)CNC(=O)[C@H](CCC(=O)O)NC(=O)C(C)(C)NC(=O)[C@@H](N)Cc1c[nH]cn1)[C@@H](C)O)[C@@H](C)O)C(C)C)C(=O)N[C@@H](C)C(=O)N[C@@H](Cc1c[nH]c2ccccc12)C(=O)N[C@@H](CC(C)C)C(=O)N[C@H](C(=O)N[C@@H](CCCNC(=N)N)C(=O)NCC(=O)N[C@@H](CCCNC(=N)N)C(=O)N[C@@H](CCCCNC(=O)[C@@H](N)CCCCNC(=O)CC[C@H](NC(=O)CC[C@H](NC(=O)CC[C@H](NC(=O)CCCCCCCCCCCOc1ccc(C(=O)O)cc1)C(=O)O)C(=O)O)C(=O)O)C(=O)O)C(C)C [Example 17, N^ε26-[(2S)-2-amino-6-[[(4S)-4-carboxy-4-[[(4S)-4-carboxy-4-[[(4S)-4-carboxy-4-[12-(4-carboxyphenoxy)dodecanoylamino]butanoyl]amino]butanoyl]amino]butanoyl]amino]hexanoyl], N^ε37-[(2S)-2-amino-6-[[(4S)-4-carboxy-4-[[(4S)-4-carboxy-4-[[(4S)-4-carboxy-4-[12-(4-carboxyphenoxy)dodecanoylamino]butanoyl]amino]butanoyl]amino]butanoyl]amino]hexanoyl]-[Aib^8,Arg^34,Lys^37]-GLP-1-(7-37)-peptide] | 632 nM | 0.42 nM | 24 h | 71 h | 0.0033 nM |  |  |
| CC[C@H](C)[C@H](NC(=O)[C@H](Cc1ccccc1)NC(=O)[C@H](CCC(=O)O)NC(=O)[C@H](CCCCNC(=O)[C@@H](N)CCCCNC(=O)[C@@H](N)CCCCNC(=O)CC[C@H](NC(=O)CCCCCCCCCCOc1ccc(C(=O)O)cc1)C(=O)O)NC(=O)[C@H](C)NC(=O)[C@H](C)NC(=O)[C@H](CCC(N)=O)NC(=O)CNC(=O)[C@H](CCC(=O)O)NC(=O)[C@H](CC(C)C)NC(=O)[C@H](Cc1ccc(O)cc1)NC(=O)[C@H](CO)NC(=O)[C@H](CO)NC(=O)[C@@H](NC(=O)[C@H](CC(=O)O)NC(=O)[C@H](CO)NC(=O)[C@@H](NC(=O)[C@H](Cc1ccccc1)NC(=O)[C@@H](NC(=O)CNC(=O)[C@H](CCC(=O)O)NC(=O)C(C)(C)NC(=O)[C@@H](N)Cc1c[nH]cn1)[C@@H](C)O)[C@@H](C)O)C(C)C)C(=O)N[C@@H](C)C(=O)N[C@@H](Cc1c[nH]c2ccccc12)C(=O)N[C@@H](CC(C)C)C(=O)N[C@H](C(=O)N[C@@H](CCCNC(=N)N)C(=O)NCC(=O)N[C@@H](CCCNC(=N)N)C(=O)N[C@@H](CCCCNC(=O)[C@@H](N)CCCCNC(=O)[C@@H](N)CCCCNC(=O)CC[C@H](NC(=O)CCCCCCCCCCOc1ccc(C(=O)O)cc1)C(=O)O)C(=O)O)C(C)C [Example 20, N^ε26-[(2S)-2-amino-6-[[(2S)-2-amino-6-[[(4S)-4-carboxy-4-[11-(4-carboxyphenoxy)undecanoylamino]butanoyl]amino]hexanoyl]amino]hexanoyl], N^ε37-[(2S)-2-amino-6-[[(2S)-2-amino-6-[[(4S)-4-carboxy-4-[11-(4-carboxyphenoxy)undecanoylamino]butanoyl]amino]hexanoyl]amino]hexanoyl]-[Aib^8,Arg^34,Lys^37]-GLP-1-(7-37)-peptide] | 48 nM | 0.13 nM | 14 h | 59 h | 0.0049 nM | 0.063 nM | 13 |
